Measurements published in US6964763B1, “Methods and compositions for inhibiting HIV infectivity and blocking chemokine activity” (priority 1997, dated 2005).
Where a SMILES comes first, the peptide text is derived from it.

How the values were obtained:
HIV-1 isolate IIIB = assay: HIV-1 infectivity assay, virus pre-incubated with TSP1 or saliva, p24 ELISA day 7; type: cell-based
Experimental: HIV-1 isolate IIIB was pre-incubated in the absence of TSP1, or with various concentrations of purified TSP1 for 1 hour at 37° C. Pre-incubated virus-TSP1 mixtures were added to target cells either directly (−), or first passed through 0.2 μm filters (+). Phorbol myrisate acetate (“PMA”) activated primary peripheral blood mononuclear cells (“PBMC”), SK23 (T-cell line) or U937 (promonocytic line) were inoculated with the multiplicities of infection (“moi”) indicated. After an additional 1 hour at 37° C., infected cells were washed, cultured for 7 days, and HIV-1 p24 antigen measured by ELISA. Inhibition is expressed for a single data set as percent of maximum p24 detected in the absence of TSP1.
PMA-stimulated primary PBMC were infected with 0.02 moi HIV/IIIB that had been pre-incubated with TSP1 alone, or with LIMPII fusion protein LFP75-155 alone or in the presence of TSP1, and filtered prior to incubation as in FIG. 7. TSP-mediated inhibition is expressed as percent decrease in p24 relative to maximum p24 detected in the absence of TSP 1. Data shown represent the average of two independent experiments (error as SD).
CD4+T lymphoblastoid (SK23, Jurkat) and promonocytic (U937) cell lines, or peripheral blood mononuclear cells (“PBMC”) obtained from HIV seronegative donors and activated with phytohemagglutinin (“PHA”, 2 μg/ml for 72 hours), were cultured in RPMI 1640, 5% fetal bovine serum (“FBS”, frozen/thawed and complement-inactivated 30 minutes at 56° C.), 100 U/ml penicillin and 100 μg/ml streptomycin (GIBCO/BRL, Grand Island, N.Y.). PBMC medium also contained 32 U/ml interleukin-2 (Sigma Chemical Co., St. Louis, Mo.). FBS samples were pre-screened to assure that levels of TSP were<10 μg/ml. Acute HIV infection was performed using HIV-1 isolate IIIB stock virus as previously described (Laurence et al., “Human Immunodeficiency Virus Infection of Helper T-Cell Clones: Early Proliferative Defects Despite Intact Antigen-Specific Recognition and Interleukin 4 Secretion,” J. Clin. Invest., 83:1843-1848 (1989); Laurence et al., “Human Immunodeficiency Virus Infection of Monocytes: Relationship to Fc-Gamma Receptors and Antibody-Dependent Viral Enhancement,” Immunology, 70:338-343 (I 990), which are hereby incorporated by reference). Briefly, 2.5×10^5 target cells were exposed to stock virus at a moi of either 0.02 or 0.15 for 2 hours at 37° C., washed once with PBS, and re-plated in tissue culture-treated microwells with 0.3 ml fresh culture medium. At 3-4 days post-inoculation, one half of culture supernatant from each well was replaced with fresh medium. HIV activity was determined after 7 days using an ELISA antigen capture assay for HIV-1 p24 (gag) core protein (Dupont Medical Products, Boston, Mass.) of Triton X-100 solubilized culture supernatants.
• 100 μl of HIV-1/IIIB inocula were mixed with 100 μl of various concentrations of whole saliva, salivary fluid fractions, or purified platelet TSP1 diluted in serum-free cell culture medium, and pre-incubated for 2 hours at 37° C. Then, 10-fold serial dilutions were added directly to target cell cultures for assay of infectivity. In some experiments, pre-incubated virus-saliva/TSP mixtures were filtered through 0.2 μm nitrocellulose syringe filters (Gelman Sciences, Ann Arbor, Mich.) prior to inoculation of target cells. Salivary TSP1 Depletion Experiments

gp120 (LAI isolate) = biological target: T1, gp120 (LAI isolate) (Human immunodeficiency virus type 1 group M subtype B, UniProt P03377); type: binding, HIV-1
T1 construct: baculovirus-expressed HIV-1 gp120 derived from LAV and MN isolates; host or cells: baculovirus expression system
Experimental: Increasing concentrations of soluble ^125I-labeled recombinant gp120LAV (nM -1μM) were incubated with immobilized ligand for 2 hours at 37° C., and bound radioactivity measured as in FIGS. 2A and 2B. […] This plot represents a single data set of triplicate samples (72=2, errors as SD).
Briefly, TSP1 (5-10 μg/ml) or fusion proteins and peptides (10-20 μg/ml) were immobilized on detachable 96-well microtiter plate strips (Immulon-4 Remov-a-well, Dynatech Laboratories, Inc.), by overnight incubation at 4° C. in carbonate buffer (100 mM Na2CO3/1 mM MgCl2/0.02% NaN3, pH 9.8). Washed wells were blocked with 0.5% bovine serum albumin (“BSA”), then incubated in triplicate with soluble radiolabeled ligand for 2.5 hours at 37° C. After extensive washing in 50 mM Tris pH 7.5, 150 mM NaCl, 0.5% Tween-20 (TBS-Tween), bound radioactivity was quantified by gamma counter. […] Specific activity of Na[^125I] was determined for each experiment, ranging from 0.06-1.0 μCi/μg. Specific binding was determined as quenchable in the presence of excess unlabeled ligand, above background binding to BSA-coated wells.
The gp120 envelope protein was tested to determine whether it shared this same specificity.

[1] = system: CD4-gp120 complex formation; assay: Competitive inhibition of 125I-CD4 binding to immobilized gp120; parameters: species or system HIV-1 (MN and LAI isolates); conditions: 10-fold molar excess (0.5 μM) competitor, 50 nM 125I-CD4, MN and LAI gp120
Experimental: FIG. 5 is a graph showing competitive inhibition of ^125I-CD4 binding to gp120. […] Samples were incubated, and bound TSP1 was measured as in FIG. 2. A single data set of triplicate samples (η=3, error as SD) is shown.
(§1) Radiolabeling was performed with Na[^125I]
These observations support a role for salivary TSP1 as a direct inhibitor of HIV infectivity.

CD4 surface expression = assay: Cell surface expression of CD4 by flow cytometry; type: cell-based, human; conditions: 100 μg/ml TSP1, 3 days; Jurkat, SK23, PHA-activated PBMC
Experimental: CD4 surface expression on HIV-1 infected or uninfected U937 cells was evaluated by indirect immunofluorescence flow cytometry using anti-CD4 mAb Leu3, as detailed elsewhere (Laurence et al., “Human Immunodeficiency Virus Infection of Helper T-Cell Clones: Early Proliferative Defects Despite Intact Antigen-Specific Recognition and Interleukin 4 Secretion,” J. Clin. Invest., 83:1843-1848 (1989), which is hereby incorporated by reference).
Another mechanism to explain TSP-mediated blockade to HIV infection would be a direct effect on target cells, whereby alterations in cell function would decreased the capacity to support productive infection. To address whether exogenous purified TSP1 induced down-modulation of the high affinity HIV receptor, CD4+ Jurkat and SK23 T-cell lines, as well as PHA-activated PBMC, were monitored for differences in CD4 surface expression after culture for 3 days in the absence or presence of 100 μg/ml TSP1. By flow cytometric analysis of cells stained with fluorescein-conjugated anti-CD4 IgG, no change in relative fluorescence intensity or percent CD4+cell was detected.

RANTES = biological target: T2, RANTES (Homo sapiens, UniProt P13501); assay: Solid phase binding of 125I-RANTES to immobilized TSP
T2 sequence (P13501 24-91): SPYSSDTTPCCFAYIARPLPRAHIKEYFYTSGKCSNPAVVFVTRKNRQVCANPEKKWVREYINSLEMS
Experimental: FIG. 9 is a graph showing the binding of ^125I-RANTES to TSP1. Increasing concentrations of soluble ^125I-labeled RANTES (0.01 μM -10.0 μM) were added to immobilized TSP1. Samples were incubated and bound ^125I-labeled RANTES measured by solid-binding radio-amino assay.
FIG. 10 is a graph showing the Hanes analysis of “^125-RANTES binding to immobilized TSP1. The Hanes analysis provides a measure of assessing the possibility of binding one or more factors to a given molecule.
as §1
In solid phase assays, ^125I-RANTES binded to immobilized TSP. […] Estimated stoichiometry at equilibrium was low (˜0.5 RANTES molecule for every 10 TSP monomer), although the steep slope of the second phase indicated a cooperative interaction (Hanes plot, FIG. 10). One interpretation of the data is that RANTES homodimerization is favored over binding to TSP. At a concentration that shifts equilibrium toward formation of the heterologous complex, positive cooperativity likely reflects a higher apparent affinity of RANTES monomers for binding to TSP, with an increase in monomers being a function of the odd number of sites presented by TSP homotrimers.

[2] = system: monocytotropic strains of HIV-1, p13 and HA593; assay: HIV-1 infectivity assay with monocytotropic patient isolates; type: cell-based; conditions: 100 μg/ml TSP1, viral moi 0.8
[3] = biological target: recombinant HIV-1 gp160 (gp120 non-covalently linked to gp41) (Human immunodeficiency virus type 1 group M subtype B, UniProt P03375)
Experimental: Increasing concentrations of soluble ^125I-labeled TSP1 (1 nM-μM) were added to immobilized recombinant HIV-1 gp160 for 3 hours at 22° C., and bound TSP1 measured after extensive washing. Non-linear curve fit was generated with Excell™ version 5.0. Apparent affinity was estimated from Scatchard analysis. (n=2; error calculated as standard deviation, SD).
A fixed concentration of ^125I-labeled TSP 1(50 nM) was added to immobilized rgp 160 in the absence or presence of 10-fold molar excess (0.5 μM) unlabeled TSP1, fusion protein LFP75-155 containing the LIMPII TSP binding domain (aa 75-155), or downstream fusion protein LFP 156-243. Samples were incubated, and bound TSP 1 was measured as in FIG. 2A. Plots represent single data sets of triplicate samples. (n=3, error as SD).
Briefly, TSP1 (5-10 μg/ml) or fusion proteins and peptides (10-20 μg/ml) were immobilized on detachable 96-well microtiter plate strips (Immulon-4 Remov-a-well, Dynatech Laboratories, Inc.), by overnight incubation at 4° C. in carbonate buffer (100 mM Na2CO3/1 mM MgCl2/0.02% NaN3, pH 9.8). Washed wells were blocked with 0.5% bovine serum albumin (“BSA”), then incubated in triplicate with soluble radiolabeled ligand for 2.5 hours at 37° C. After extensive washing in 50 mM Tris pH 7.5, 150 mM NaCl, 0.5% Tween-20 (TBS-Tween), bound radioactivity was quantified by gamma counter. Radiolabeling was performed with Na[^125I] […] Specific activity of Na[^125I] was determined for each experiment, ranging from 0.06-1.0 μCi/μg. Specific binding was determined as quenchable in the presence of excess unlabeled ligand, above background binding to BSA-coated wells.

CD4 = biological target: T3, CD4 (Homo sapiens, UniProt P01730); assay: Solid phase binding of 125I-CD4 to immobilized TSP1 and TSP analog
T3 construct: CHO cell-expressed soluble CD4; host or cells: CHO cells
Experimental: FIG. 12 is a graph showing the binding of ^125I-CD4 to TSP1 and a TSP analog. Increasing concentrations of soluble ^125I-labeled CD4 (0.1μM -1.0 μM) were added to immobilized TSP1, CVSTCG polypeptide (SEQ. ID. No. 1). Samples were incubated and bound ^125I-labeled CD4 measured by solid-binding radio-amino assay, […].
as §1

**Q.** How did the “effect on HIV-1 infection of PBMC (in words)” value (HIV-1 isolate IIIB; same system as TSP1, pre-filtered) turn out when fibrinogen [reference compound] was run?
**A.** no effect

**Q.** “VGSCCT [scrambled control peptide, reference compound]” was tested. Which “binding of 125I-gp120 to immobilized peptide (in words)” value (gp120 (LAI isolate)) did it give?
**A.** inefficient binding

**Q.** And the “inhibition of 125I-CD4 binding to immobilized gp120” value (shortened to “inhibition of 125I-CD4 binding”) [1]?
**A.** enhanced binding

**Q.** Which “change in relative fluorescence intensity or percent CD4+ cells” value (CD4 surface expression) does the source give for thrombospondin-1 [TSP1] here?
**A.** no change

**Q.** What about the “estimated stoichiometry at equilibrium” value (RANTES) of the same molecule?
**A.** ~0.5 RANTES molecule for every 10 TSP monomer

**Q.** And the Kd (RANTES; saturatable, biphasic higher order kinetics, read-out: half maximal binding of 125I-RANTES to immobilized TSP)?
**A.** ~330 nM

**Q.** What about the “inhibition of 125I-CD4 binding” value [1] of the same molecule?
**A.** complete inhibition

**Q.** And the “reduction of HIV-1 infection of PHA-activated donor PBMC (p24)” value (HIV-1 isolate IIIB; 2-10 μg/ml TSP1, pre-filtered)?
**A.** > 83%

**Q.** What about the “reduction of HIV-1 infectivity after brief exposure” value (HIV-1 isolate IIIB; 5 minutes exposure of TSP-virion mixture, 1 μg/ml TSP1) of the same molecule?
**A.** > 50%

**Q.** And the “inhibition of HIV-1 IIIB infection, SK23” value (HIV-1 isolate IIIB; SK23 CD4+ T-lymphoblastoid cell line)?
**A.** ≥ 90.7%

**Q.** What about the “inhibition of HIV-1 IIIB infection, U937” value (HIV-1 isolate IIIB; U937 monocytoid cell line) of the same molecule?
**A.** ≥ 83.0%

**Q.** And the “inhibition of HIV-1 on direct addition of TSP1” value (HIV-1 isolate IIIB; no filtration, only with high concentration of TSP1 and low moi inoculum)?
**A.** 50-75%

**Q.** And the “inhibition of HIV infectivity, strains p13 and HA593” value [2]?
**A.** ≥ 98±1%

**Q.** What about the “inhibition of 125I-TSP1 binding to gp160” value ([3]; 10-fold molar excess (0.5 μM) unlabeled competitor, 50 nM 125I-TSP1) of the same molecule?
**A.** 94±6%

**Q.** And the Kd ([3]; read-out: apparent affinity of TSP1 binding to immobilized recombinant gp160, soluble 125I-TSP1, Scatchard analysis)?
**A.** ~250 nM

**Q.** And the “binding of 125I-CD4 to immobilized ligand (in words)” value (CD4)?
**A.** concentration dependent saturatable manner

**Q.** What does the source list for `CC(C)[C@H](NC(=O)[C@H](CO)NC(=O)[C@@H](N)CS)C(=O)N[C@H](C(=O)N[C@@H](CS)C(=O)NCC(=O)O)[C@@H](C)O` [CSVTCG, cys-ser-val-thr-cys-gly] (H-CSVTCG-OH; N-terminus and C-terminus assumed)?
**A.** inhibition of 125I-CD4 binding to immobilized gp120 [1]: 53±9%; binding of 125I-CD4 to immobilized ligand (in words) (CD4): binded directly

**Q.** Which “binding of 125I-gp120 to immobilized peptide (in words)” value (gp120 (LAI isolate)) does the source give for GRGDS (GRGDA) [reference compound] here?
**A.** inefficient binding

**Q.** And the “inhibition of 125I-CD4 binding” value [1]?
**A.** 4±4%
